# According to publication PMC8537450, “Cyclopeptide Derivatives from the Sponge-Derived Fungus Acremonium persicinum F10” (Marine Drugs, 2021):
# Read-outs that look alike come from different tables or passages of the source.
# How the values were obtained:
# Format in all cases: cell-based
# [1] = system: non-small cell lung cancer cell line A549; experiment: Cytotoxicity, MTT assay; conditions: positive control
# [2] = system: small cell lung cancer cell line H446; experiment: Cytotoxicity, MTT assay; conditions: printed H466, MTT, positive control
# [3] = system: small cell lung cancer cell line H1688; experiment: Cytotoxicity, MTT assay; conditions: positive control
# [4] = system: human embryonic lung fibroblast cell MRC-5; experiment: Cytotoxicity, MTT assay; conditions: MRC-5, MTT, positive control
# [5] = system: Aspergillus fumigatus ATCC204305; experiment: microbe, parasite or virus in culture
# Description: (§1) Compounds 1–8 were tested for antifungal activities against Aspergillus fumigatus ATCC204305 and Aspergillus niger ATCC16404 using broth microdilution antifungal susceptibility testing, according to previously published protocol. In the experiments, the RPMI-1640 medium containing 10.4 g/L of RPMI-1640 medium (R8755; Sigma, St. Louis, MO, USA), 6.7 g/L of Yeast Nitrogen Base (YNB; Becton, Dickinson and Company, Franklin Lakes, NJ, USA), 1.8% (w/v) glucose, and 40 mM HEPES (pH = 7.1) was used as culture medium. The inoculum per well for a 96-well microplate was 2 × 10^4 fresh conidia/mL (150 µL/well), which were incubated for 24 h at 37 ℃. The minimal inhibitory concentration (MIC) in the assay were performed using resazurin at 0.002% (w/v) of final concentration.
# [6] = system: Aspergillus niger ATCC16404; experiment: microbe, parasite or virus in culture
# Description: as §1
"MIC ([5]; ATCC204305, Table S1, broth microdilution, RPMI-1640 + YNB + 1.8% glucose + 40 mM HEPES pH 7.1, 2 × 10^4 conidia/mL, 24 h, 37 °C, resazurin 0.002%, read-out: MIC) [µM]","MIC ([5]; ATCC204305, one range given for A. fumigatus and A. niger together, read-out: MIC values) [µM]","MIC ([5]; ATCC204305, text of method and conclusions, unit printed as μg/mL, read-out: MICs) [mg/L]","MIC ([6]; ATCC16404, Table S1, broth microdilution, RPMI-1640 + YNB + 1.8% glucose + 40 mM HEPES pH 7.1, 2 × 10^4 conidia/mL, 24 h, 37 °C, resazurin 0.002%, read-out: MIC) [µM]","MIC ([6]; ATCC16404, one range given for A. fumigatus and A. niger together, read-out: MIC values) [µM]","MIC ([6]; ATCC16404, text of method and conclusions, unit printed as μg/mL, read-out: MICs) [mg/L]",SMILES,IC50 [1] [µM],IC50 [2] [µM],IC50 [3] [µM],IC50 [4] [µM]
–,–,–,–,–,–,N.N.[Cl][Pt][Cl] [Cisplatin],3.8,1.9,3,23.8
1,1,1,1,1,1,C[C@@H]1[C@H](O)[C@@H](C)/C=C/C=C/C=C/C=C/C=C/C=C/C=C/[C@H](O[C@@H]2O[C@H](C)[C@@H](O)[C@H](N)[C@@H]2O)C[C@@H]2O[C@](O)(C[C@@H](O)C[C@@H](O)[C@H](O)CC[C@@H](O)C[C@@H](O)CC(=O)O[C@H]1C)C[C@H](O)[C@H]2C(=O)O [Amphotericin B],–,–,–,–
